Data reported in paper PMC12090182, “Repurposing of the RIPK1-Selective Benzo[1,4]oxazepin-4-one Scaffold for the Development of a Type III LIMK1/2 Inhibitor” (ACS Chemical Biology, 2025).

What was measured:
Assay in all cases: biochemical
Assay type in all cases: binding
[1] = biological target: 468 kinases including some pathogenic mutants (Homo sapiens, UniProt P15735); details: PHKG2 (Entrez PHKG2), 100 nM; read-out: Percent Control
[2] = biological target: 468 kinases including some pathogenic mutants (Homo sapiens, UniProt Q96J92); details: WNK4 (Entrez WNK4), 1000 nM; read-out: Percent Control
[3] = biological target: 468 kinases including some pathogenic mutants (Homo sapiens, UniProt Q9UIK4); details: DAPK2 (Entrez DAPK2), 100 nM; read-out: Percent Control
[4] = biological target: 468 kinases including some pathogenic mutants (Homo sapiens, UniProt P45985); details: MEK4 (Entrez MAP2K4), 1000 nM; read-out: Percent Control
[5] = biological target: 468 kinases including some pathogenic mutants (Homo sapiens, UniProt P37023); details: ACVRL1 (Entrez ACVRL1), 100 nM; read-out: Percent Control
[6] = biological target: 468 kinases including some pathogenic mutants (Homo sapiens, UniProt P07949); details: RET (Entrez RET), 1000 nM; read-out: Percent Control
[7] = biological target: 468 kinases including some pathogenic mutants (Homo sapiens, UniProt Q15208); details: NDR1 (Entrez STK38), 100 nM; read-out: Percent Control
[8] = biological target: 468 kinases including some pathogenic mutants (Homo sapiens, UniProt P06239); details: LCK (Entrez LCK), 100 nM; read-out: Percent Control
[9] = biological target: 468 kinases including some pathogenic mutants (Homo sapiens, UniProt Q9Y2I7); details: PIKFYVE (Entrez PIKFYVE), 1000 nM; read-out: Percent Control
[10] = biological target: 468 kinases including some pathogenic mutants (Homo sapiens, UniProt P50750); details: CDK9 (Entrez CDK9), 100 nM; read-out: Percent Control
[11] = biological target: 468 kinases including some pathogenic mutants (Homo sapiens, UniProt P21860); details: ERBB3 (Entrez ERBB3), 100 nM; read-out: Percent Control
[12] = biological target: 468 kinases including some pathogenic mutants (Homo sapiens, UniProt Q02779); details: MLK2 (Entrez MAP3K10), 100 nM; read-out: Percent Control
[13] = biological target: 468 kinases including some pathogenic mutants (Homo sapiens, UniProt Q8TF76); details: HASPIN (Entrez GSG2), 100 nM; read-out: Percent Control
[14] = biological target: 468 kinases including some pathogenic mutants (Homo sapiens, UniProt Q13523); details: PRP4 (Entrez PRPF4B), 1000 nM; read-out: Percent Control
[15] = biological target: 468 kinases including some pathogenic mutants (Homo sapiens, UniProt Q96PN8); details: TSSK3 (Entrez TSSK3), 1000 nM; read-out: Percent Control
[16] = biological target: 468 kinases including some pathogenic mutants (Homo sapiens, UniProt P54756); details: EPHA5 (Entrez EPHA5), 100 nM; read-out: Percent Control
[17] = biological target: 468 kinases including some pathogenic mutants (Homo sapiens, UniProt P27448); details: MARK3 (Entrez MARK3), 100 nM; read-out: Percent Control
[18] = biological target: 468 kinases including some pathogenic mutants (Homo sapiens, UniProt Q9NRM7); details: LATS2 (Entrez LATS2), 100 nM; read-out: Percent Control
[19] = biological target: 468 kinases including some pathogenic mutants (Homo sapiens, UniProt P48730); details: CSNK1D (Entrez CSNK1D), 100 nM; read-out: Percent Control
[20] = biological target: 468 kinases including some pathogenic mutants (Homo sapiens, UniProt O94768); details: DRAK2 (Entrez STK17B), 100 nM; read-out: Percent Control
[21] = biological target: 468 kinases including some pathogenic mutants (Homo sapiens, UniProt Q14289); details: PYK2 (Entrez PTK2B), 100 nM; read-out: Percent Control
[22] = biological target: 468 kinases including some pathogenic mutants (Homo sapiens, UniProt Q9Y4K4); details: MAP4K5 (Entrez MAP4K5), 100 nM; read-out: Percent Control
[23] = biological target: 468 kinases including some pathogenic mutants (Homo sapiens, UniProt P49336); details: CDK8 (Entrez CDK8), 100 nM; read-out: Percent Control
[24] = biological target: 468 kinases including some pathogenic mutants (Homo sapiens, UniProt P20794); details: MAK (Entrez MAK), 1000 nM; read-out: Percent Control
[25] = biological target: 468 kinases including some pathogenic mutants (Homo sapiens, UniProt Q86UX6); details: YANK3 (Entrez STK32C), 100 nM; read-out: Percent Control
[26] = biological target: 468 kinases including some pathogenic mutants (Homo sapiens, UniProt Q8TBX8); details: PIP5K2C (Entrez PIP4K2C), 100 nM; read-out: Percent Control
[27] = biological target: 468 kinases including some pathogenic mutants (Homo sapiens, UniProt P51817); details: PRKX (Entrez PRKX), 100 nM; read-out: Percent Control
[28] = biological target: 468 kinases including some pathogenic mutants (Homo sapiens, UniProt Q8TDX7); details: NEK7 (Entrez NEK7), 100 nM; read-out: Percent Control
Sequence of 468 kinases including some pathogenic mutants (Homo sapiens, UniProt Q8TDX7) (Q8TDX7 whole entry, change not shown): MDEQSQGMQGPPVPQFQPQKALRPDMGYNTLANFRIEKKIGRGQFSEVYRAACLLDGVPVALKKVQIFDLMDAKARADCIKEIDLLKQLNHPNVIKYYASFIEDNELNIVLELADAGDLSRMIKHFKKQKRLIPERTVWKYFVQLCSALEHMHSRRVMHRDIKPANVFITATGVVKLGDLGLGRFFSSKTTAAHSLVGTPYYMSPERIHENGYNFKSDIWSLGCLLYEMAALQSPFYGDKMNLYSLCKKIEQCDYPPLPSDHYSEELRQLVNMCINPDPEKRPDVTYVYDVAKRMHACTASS

Sequence of 468 kinases including some pathogenic mutants (Homo sapiens, UniProt P21860) (P21860 20-1342, change not shown): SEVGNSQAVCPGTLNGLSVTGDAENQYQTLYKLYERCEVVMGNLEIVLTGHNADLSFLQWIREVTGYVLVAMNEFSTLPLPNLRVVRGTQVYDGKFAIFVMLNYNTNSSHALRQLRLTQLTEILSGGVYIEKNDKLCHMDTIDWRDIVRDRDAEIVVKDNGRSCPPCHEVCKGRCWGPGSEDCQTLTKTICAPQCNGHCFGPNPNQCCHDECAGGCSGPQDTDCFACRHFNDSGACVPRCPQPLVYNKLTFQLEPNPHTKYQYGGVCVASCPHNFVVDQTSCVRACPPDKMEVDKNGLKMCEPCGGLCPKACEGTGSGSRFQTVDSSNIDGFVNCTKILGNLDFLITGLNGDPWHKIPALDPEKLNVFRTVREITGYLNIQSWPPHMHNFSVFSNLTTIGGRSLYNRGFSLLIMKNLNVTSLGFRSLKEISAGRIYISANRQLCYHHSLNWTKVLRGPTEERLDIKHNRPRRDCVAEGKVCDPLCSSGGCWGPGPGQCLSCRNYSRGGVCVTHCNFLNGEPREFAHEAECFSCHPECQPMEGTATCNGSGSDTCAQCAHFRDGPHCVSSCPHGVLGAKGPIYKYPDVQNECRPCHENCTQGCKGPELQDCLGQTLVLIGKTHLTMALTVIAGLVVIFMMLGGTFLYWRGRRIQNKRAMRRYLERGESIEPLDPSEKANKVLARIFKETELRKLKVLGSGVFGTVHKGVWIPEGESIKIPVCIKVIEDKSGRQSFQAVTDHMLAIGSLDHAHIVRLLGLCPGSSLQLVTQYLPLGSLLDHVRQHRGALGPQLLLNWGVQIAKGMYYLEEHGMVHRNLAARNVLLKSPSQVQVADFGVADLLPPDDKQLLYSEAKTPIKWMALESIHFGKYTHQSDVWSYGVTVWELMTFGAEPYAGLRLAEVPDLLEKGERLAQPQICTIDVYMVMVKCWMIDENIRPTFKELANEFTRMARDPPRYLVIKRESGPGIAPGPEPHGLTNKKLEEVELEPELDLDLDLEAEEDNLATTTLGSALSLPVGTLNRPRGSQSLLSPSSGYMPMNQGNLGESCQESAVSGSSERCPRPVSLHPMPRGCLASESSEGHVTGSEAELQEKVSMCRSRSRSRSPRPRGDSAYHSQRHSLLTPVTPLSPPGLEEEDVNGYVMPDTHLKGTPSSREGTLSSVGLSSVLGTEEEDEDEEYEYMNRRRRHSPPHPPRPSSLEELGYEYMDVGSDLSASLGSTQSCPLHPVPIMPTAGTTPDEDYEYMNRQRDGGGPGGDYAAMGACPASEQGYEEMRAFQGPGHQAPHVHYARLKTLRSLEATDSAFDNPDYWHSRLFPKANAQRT
Sequence of 468 kinases including some pathogenic mutants (Homo sapiens, UniProt P48730) (P48730 whole entry, change not shown): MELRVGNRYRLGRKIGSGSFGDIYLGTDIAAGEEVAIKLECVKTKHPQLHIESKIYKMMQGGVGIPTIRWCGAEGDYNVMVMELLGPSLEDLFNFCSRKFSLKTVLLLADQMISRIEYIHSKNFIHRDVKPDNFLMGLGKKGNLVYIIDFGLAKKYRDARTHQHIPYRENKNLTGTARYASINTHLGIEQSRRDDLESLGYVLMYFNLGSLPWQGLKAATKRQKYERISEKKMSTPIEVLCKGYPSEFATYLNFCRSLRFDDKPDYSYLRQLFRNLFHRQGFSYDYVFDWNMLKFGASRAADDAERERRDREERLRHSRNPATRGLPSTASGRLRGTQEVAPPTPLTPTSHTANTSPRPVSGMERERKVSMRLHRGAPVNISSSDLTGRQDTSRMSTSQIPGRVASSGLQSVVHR
Sequence of 468 kinases including some pathogenic mutants (Homo sapiens, UniProt Q14289) (Q14289 whole entry, change not shown): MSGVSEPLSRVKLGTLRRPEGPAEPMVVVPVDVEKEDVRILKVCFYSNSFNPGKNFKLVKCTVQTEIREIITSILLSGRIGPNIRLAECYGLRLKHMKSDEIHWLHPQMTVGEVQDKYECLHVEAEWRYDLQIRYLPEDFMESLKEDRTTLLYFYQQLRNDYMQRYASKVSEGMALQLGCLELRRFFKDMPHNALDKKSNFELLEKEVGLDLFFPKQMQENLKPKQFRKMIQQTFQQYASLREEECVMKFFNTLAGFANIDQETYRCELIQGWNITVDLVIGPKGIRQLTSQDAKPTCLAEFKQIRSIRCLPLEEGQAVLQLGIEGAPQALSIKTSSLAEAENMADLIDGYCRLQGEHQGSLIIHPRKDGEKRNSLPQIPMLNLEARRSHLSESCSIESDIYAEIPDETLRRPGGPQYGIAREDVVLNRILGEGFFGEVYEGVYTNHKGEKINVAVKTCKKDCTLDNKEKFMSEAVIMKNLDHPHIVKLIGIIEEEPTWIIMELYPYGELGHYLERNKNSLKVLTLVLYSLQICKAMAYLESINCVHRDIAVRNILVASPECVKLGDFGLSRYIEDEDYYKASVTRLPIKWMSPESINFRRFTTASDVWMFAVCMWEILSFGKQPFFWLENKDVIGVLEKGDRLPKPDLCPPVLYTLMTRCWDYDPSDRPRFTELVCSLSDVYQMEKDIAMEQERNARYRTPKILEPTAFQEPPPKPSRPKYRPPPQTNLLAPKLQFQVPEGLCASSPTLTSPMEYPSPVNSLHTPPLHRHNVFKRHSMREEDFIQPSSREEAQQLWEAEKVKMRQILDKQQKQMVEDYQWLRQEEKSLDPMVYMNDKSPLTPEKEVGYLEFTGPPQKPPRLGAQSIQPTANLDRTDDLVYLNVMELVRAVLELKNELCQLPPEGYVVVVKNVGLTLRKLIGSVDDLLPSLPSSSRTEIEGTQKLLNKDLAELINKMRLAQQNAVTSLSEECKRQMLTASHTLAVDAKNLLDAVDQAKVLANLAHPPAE
Sequence of 468 kinases including some pathogenic mutants (Homo sapiens, UniProt Q86UX6) (Q86UX6 whole entry, change not shown): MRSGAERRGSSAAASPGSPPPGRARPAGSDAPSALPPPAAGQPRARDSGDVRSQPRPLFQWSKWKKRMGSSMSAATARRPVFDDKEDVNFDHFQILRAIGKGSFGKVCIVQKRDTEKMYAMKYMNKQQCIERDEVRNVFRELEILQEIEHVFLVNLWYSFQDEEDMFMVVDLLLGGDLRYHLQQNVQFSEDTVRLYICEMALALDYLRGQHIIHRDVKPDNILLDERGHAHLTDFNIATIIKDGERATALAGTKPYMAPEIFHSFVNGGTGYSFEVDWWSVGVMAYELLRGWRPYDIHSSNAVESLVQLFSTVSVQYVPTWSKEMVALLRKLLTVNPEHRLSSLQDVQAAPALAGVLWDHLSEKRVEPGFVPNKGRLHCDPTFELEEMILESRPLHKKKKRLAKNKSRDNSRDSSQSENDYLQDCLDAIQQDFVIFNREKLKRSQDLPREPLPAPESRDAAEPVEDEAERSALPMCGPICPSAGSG
Sequence of 468 kinases including some pathogenic mutants (Homo sapiens, UniProt O94768) (O94768 whole entry, change not shown): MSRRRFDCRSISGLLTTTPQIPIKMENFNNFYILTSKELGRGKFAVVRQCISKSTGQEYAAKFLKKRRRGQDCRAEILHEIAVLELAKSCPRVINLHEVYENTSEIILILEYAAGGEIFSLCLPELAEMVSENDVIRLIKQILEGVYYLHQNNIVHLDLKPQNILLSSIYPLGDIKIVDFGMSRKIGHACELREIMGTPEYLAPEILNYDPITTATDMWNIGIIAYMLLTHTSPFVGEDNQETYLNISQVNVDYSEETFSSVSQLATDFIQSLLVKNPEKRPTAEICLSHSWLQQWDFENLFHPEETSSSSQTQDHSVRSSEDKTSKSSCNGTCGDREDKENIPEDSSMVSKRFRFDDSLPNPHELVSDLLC
Sequence of 468 kinases including some pathogenic mutants (Homo sapiens, UniProt P51817) (P51817 whole entry, change not shown): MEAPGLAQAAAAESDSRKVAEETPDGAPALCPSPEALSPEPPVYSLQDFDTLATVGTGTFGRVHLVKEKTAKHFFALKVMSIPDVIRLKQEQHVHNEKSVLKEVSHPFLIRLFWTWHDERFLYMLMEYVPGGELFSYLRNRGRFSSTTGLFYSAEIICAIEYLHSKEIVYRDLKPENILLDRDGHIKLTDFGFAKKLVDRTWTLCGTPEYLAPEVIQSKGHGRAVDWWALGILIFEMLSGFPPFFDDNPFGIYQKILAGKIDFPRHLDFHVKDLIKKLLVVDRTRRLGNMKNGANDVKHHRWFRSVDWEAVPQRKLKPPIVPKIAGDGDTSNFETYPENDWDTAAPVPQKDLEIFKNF
Sequence of 468 kinases including some pathogenic mutants (Homo sapiens, UniProt Q15208) (Q15208 whole entry, change not shown): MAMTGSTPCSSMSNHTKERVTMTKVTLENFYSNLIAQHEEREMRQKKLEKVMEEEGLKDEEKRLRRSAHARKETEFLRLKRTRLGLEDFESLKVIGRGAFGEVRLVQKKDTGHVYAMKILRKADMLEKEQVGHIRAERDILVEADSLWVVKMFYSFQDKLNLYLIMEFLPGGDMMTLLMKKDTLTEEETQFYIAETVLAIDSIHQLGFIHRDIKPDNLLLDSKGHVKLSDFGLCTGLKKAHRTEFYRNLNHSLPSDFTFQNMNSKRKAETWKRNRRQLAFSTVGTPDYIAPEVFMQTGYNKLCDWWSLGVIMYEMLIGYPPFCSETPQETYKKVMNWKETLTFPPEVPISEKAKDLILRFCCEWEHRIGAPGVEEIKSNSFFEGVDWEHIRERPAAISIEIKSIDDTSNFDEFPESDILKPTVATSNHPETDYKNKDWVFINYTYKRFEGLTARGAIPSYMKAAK
Sequence of 468 kinases including some pathogenic mutants (Homo sapiens, UniProt Q96PN8) (Q96PN8 whole entry, change not shown): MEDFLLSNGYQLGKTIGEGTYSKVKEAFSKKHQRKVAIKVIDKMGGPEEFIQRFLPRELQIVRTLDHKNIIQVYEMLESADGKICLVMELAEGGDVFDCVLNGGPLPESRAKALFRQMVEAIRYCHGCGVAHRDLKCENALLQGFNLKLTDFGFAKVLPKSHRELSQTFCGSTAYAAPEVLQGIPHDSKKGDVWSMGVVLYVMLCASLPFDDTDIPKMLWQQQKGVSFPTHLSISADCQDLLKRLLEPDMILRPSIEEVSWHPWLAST

With `CN1C(=O)[C@@H](N2CCc3c(nn(Cc4ccccc4)c3C(N)=O)C2=O)COc2cc(Cl)ccc21` [Compound 10, (S)-2-benzyl-6-(8-chloro-5-methyl-4-oxo-2,3,4,5-tetrahydrobenzo[b][1,4]oxazepin-3-yl)-7-oxo-4,5,6,7-tetrahydro-2H-pyrazolo[3,4-c]pyridine-3-carboxamide] as the molecule, how does the remaining activity at 0.1 µM [1] read?
Its remaining activity at 0.1 µM is 62%.

What about the remaining activity at 1 µM [2] of the same molecule?
Its remaining activity at 1 µM is 100%.

And the remaining activity at 0.1 µM [3]?
The remaining activity at 0.1 µM was 70%.

And the remaining activity at 1 µM [4]?
The remaining activity at 1 µM was 100%.

And the remaining activity at 0.1 µM [5]?
Its remaining activity at 0.1 µM is 73%.

And the remaining activity at 1 µM [6]?
Its remaining activity at 1 µM is 100%.

And the remaining activity at 0.1 µM [7]?
The remaining activity at 0.1 µM was 86%.

And the remaining activity at 0.1 µM [8]?
Its remaining activity at 0.1 µM is 100%.

What about the remaining activity at 1 µM [9] of the same molecule?
The remaining activity at 1 µM was 100%.

And the remaining activity at 0.1 µM [10]?
The remaining activity at 0.1 µM was 92%.

And the remaining activity at 0.1 µM [11]?
The remaining activity at 0.1 µM was 84%.

What about the remaining activity at 0.1 µM [12] of the same molecule?
The remaining activity at 0.1 µM was 64%.

What about the remaining activity at 0.1 µM [13] of the same molecule?
Its remaining activity at 0.1 µM is 89%.

And the remaining activity at 1 µM [14]?
The remaining activity at 1 µM was 100%.

What about the remaining activity at 1 µM [15] of the same molecule?
Its remaining activity at 1 µM is 100%.

What about the remaining activity at 0.1 µM [16] of the same molecule?
Its remaining activity at 0.1 µM is 74%.

What about the remaining activity at 0.1 µM [17] of the same molecule?
Its remaining activity at 0.1 µM is 100%.

And the remaining activity at 0.1 µM [18]?
Its remaining activity at 0.1 µM is 68%.

And the remaining activity at 0.1 µM [19]?
The remaining activity at 0.1 µM was 79%.

And the remaining activity at 0.1 µM [20]?
Its remaining activity at 0.1 µM is 84%.

And the remaining activity at 0.1 µM [21]?
The remaining activity at 0.1 µM was 88%.

What about the remaining activity at 0.1 µM [22] of the same molecule?
The remaining activity at 0.1 µM was 100%.

And the remaining activity at 0.1 µM [23]?
Its remaining activity at 0.1 µM is 100%.

And the remaining activity at 1 µM [24]?
Its remaining activity at 1 µM is 100%.

And the remaining activity at 0.1 µM [25]?
Its remaining activity at 0.1 µM is 86%.

What about the remaining activity at 0.1 µM [26] of the same molecule?
The remaining activity at 0.1 µM was 91%.

And the remaining activity at 0.1 µM [27]?
Its remaining activity at 0.1 µM is 77%.

What about the remaining activity at 0.1 µM [28] of the same molecule?
The remaining activity at 0.1 µM was 77%.
